Measured values published in PMC13198257, “An aerosolized dual-action autotaxin inhibitor-PPARγ agonist for the treatment of pulmonary fibrosis” (Cell Reports Medicine, 2026).

How the values were obtained:
3T3-L1 = experiment: Differentiation of 3T3-L1 fibroblasts into adipocytes; type: cell-based
Experimental: Adipogenic differentiation was carried out following a well-established protocol.[63]^,[142] Upon reaching approximately 70% confluence, cells were induced to differentiate (day 0) by replacing the culture medium with complete DMEM containing 10μg/mL insulin. Experimental groups received either EL244 (1μM or 10μΜ) or the standard adipogenic induction cocktail consisting of 1μM dexamethasone (DEX) and 0.5mM 3-isobutyl-1-methylxanthine (IBMX), as indicated. On day 3, the medium was replaced with complete DMEM supplemented with 10μg/mL insulin, with continued exposure to EL244 (1μM or 10μM) in the respective treatment groups. On day 6, the medium was refreshed with complete DMEM containing the corresponding concentrations of EL244.
Differentiated adipocytes were fixed with 10% formalin solution for 2 h, washed with 60% isopropanol, and stained with filtered 0.3% (w/v) Oil red O solution for 20 min. Following staining, cells were washed three times with dH2O to remove excess dye and observed using a bright-field microscope. Fow quantification, cells were destained with 100% isopropanol and lipid accumulation levels were quantified by Oil red O absorption at 500nm.

NHLFs [1] = experiment: TGF-β-induced normal human lung fibroblasts (NHLFs): fibrotic markers and PPARγ target genes; type: cell-based; conditions: 75 μΜ, TGFβ 10 ng/ml
Experimental: Normal human lung fibroblasts (NHLFs), clone 832, were isolated from the adjacent healthy tissue of a patient undergoing open lung surgery for cancer at the Department of Pulmonology, Bichat-Claude Bernard Hospital, Paris/France; studies were approved by the Committee for Personal Protection (CPP)—Ile de France 1 (#0911932). The patient provided written consent to the use of his/her sample for research purposes; no compensation was provided. NHLFs were cultured in DMEM supplemented with 10% FBS, 1% penicillin/streptomycin, and 0.1% amphotericin B at 37 °C, 5% CO2 and ≥95% relative humidity.
For experiments, NHLFs were seeded in 6-well plates at a density of 2 × 10^5 cells per well. After overnight serum starvation, cells were pre-treated with EL244 or vehicle (concentrations specified in the corresponding figures) for 1 h, followed by stimulation with TGFβ (10 ng/mL) for 24 h.
Cells were washed twice with ice-cold 1× PBS and lysed in RIPA buffer containing 50 mM Tris-HCl (pH 7.4), 1 mM EDTA, 150 mM NaCl, 0.25% (w/v) sodium deoxycholate, 1% (v/v) Triton X-100, 0.1% (w/v) SDS and 1 mM PMSF. Equal amounts of protein extracts (30 μg) were separated into 10% SDS-PAGE gels and subsequently electro-transferred onto nitrocellulose membranes. Membranes were blocked for 1 h at room temperature in 1X TBS-T containing 5% non-fat dry milk. […] Immunoreactive protein bands were detected using ECL.

NHLFs [2] = experiment: Mitotracker assay in NHLFs; type: cell-based, human; conditions: 25 μM, TGFβ 10 ng/mL, 24 h
Experimental: NHLFs were plated at a density of 1,2 × 10^4 cells/well of a 96-well plate. The next day TGFβ (10 ng/mL) and EL244 (25 μM) or vehicle (DMSO) were added to the respective wells and incubated for 24 h. Medium was replaced with DMEM without phenol red that contained LumiTracker Mito Red CMXRos at 25 nM and a 30 min incubation followed. Medium was replaced with fresh DMEM without phenol red and without Lumitracker. Fluorescence was measured (excitation at 580 nm and reading at 600 nm) with a Tecan M200 Fluorimeter and normalized with cell number per well as measured with a Tecan Cyto Spark after cell fixation with PFA at a final concentration of 2%.

human PCLS = experiment: Human PCLS with pro-fibrotic cocktail; type: cell-based; conditions: 25 and 50 μΜ
Experimental: hPCLS were prepared from tumour-free lung tissue obtained during surgical resection from a patient undergoing surgery for pulmonary adenocarcinoma (Subject ID: LB26-0020). The biopsy was provided by the Biobanque CRB-Tumorothèque de Nice, Biobanque CHU de Nice (BB-0033-00025; approved protocol # CSE 2022-EV34), collected after written informed consent, in accordance with the Declaration of Helsinki and applicable French regulations for human biological materials.
The lung biopsy was rinsed thoroughly with Hank’s balanced salt solution (HBSS, Sigma-Aldrich) supplemented with antibiotics. The tissue was then infused with a 2.5% low-melting agarose solution prepared in DMEM/F-10 containing antibiotics, maintained at 40°C, and rapidly cooled to solidify the agarose. 8 mm tissue punches were then excised and sectioned into 300 μm-thick slices using the Compresstome VF-300-0Z (Precisionary Instruments). Each hPCLS was transferred into an individual well of a 24-well plate containing 500 μL of culture medium supplemented with 1× antibiotic–antimycotic solution (penicillin, streptomycin, amphotericin B), 50 μg/mL gentamicin, 1× insulin-transferrin-selenium (ITS) supplement, and 0.1% FBS. Slices were incubated at 37°C in a humidified atmosphere with 5% CO2. The culture medium was replaced after several hours.
Fibrosis was induced by a pro-fibrotic cocktail (PFC; 5 ng/mL TGF-β1, […] PDGF-AB, 10 ng/mL TNF-a and 5 μM LPA 18:1), following a well-established protocol.[73] Individual PCLS were first incubated with the PFC for 48 h. After this initial exposure, the medium was renewed and PCLS were treated for an additional 72 h with either PFC alone or PFC supplemented with EL244 (25 μM or 50 μM). Untreated PCLS served as controls.

[3] = Fast-track PK of compound 5: plasma exposure after i.v., i.p., inhalation, per os; type: in vivo, mice; conditions: 30 mg/kg, 1 and 3 h post-dose, versus i.v.
[4] = tested on: BLM-induced fibrotic mouse PCLSs; experiment: Fibrotic mouse precision-cut lung slices (PCLS); type: cell-based; conditions: 30 μΜ, 72 h
Experimental: Fourteen days after administration, mice were euthanized and lungs were perfused with PBS. Lungs were subsequently inflated through the trachea with pre-warmed (40-42 °C) low melting-point agarose. Following agarose solidification, the left lateral lobe was excised and sectioned into 300μm-thick slices using a vibratome machine. Lung slices were placed in 12- or 24-well culture plates containing complete DMEM supplemented with 1% penicillin/streptomycin, and 0.1% amphotericin B, and maintained at 37 °C, 5% CO2 and ≥95% relative humidity. After an overnight equilibration period, slices were treated with either GLPG-1690 (30μM) or compound 5 (30μM) for 72 h. Culture medium was refreshed every 24 h throughout the treatment period. For downstream gene expression analysis, three slices were pooled per sample for RNA extraction. Control PCLS were generated from saline-treated mice. […] Fluorophore-conjugated secondary antibody (1:500) was applied for 1 h at room temperature, and nuclei were counterstained with DAPI. Brightfield and fluorescence imaging were performed using the Olympus VS200 slide scanner.

SMILES | Adipogenesis (oil red O lipid droplets) (3T3-L1; 1 or 10 μM with insulin, compared with IBMX/DEX) | Expression of PPARγ target genes (Adipoq, Fabp4, CD36) and PPARγ (3T3-L1; RT-qPCR) | Col1a1 and Acta2 (aSMA) mRNA and protein (NHLFs [1]) | PPARγ target genes and PPARγ expression (NHLFs [1]) | TGF-β-induced mitochondrial activation (NHLFs [2]) | Col1a1 and Acta2 mRNA expression (human PCLS) | Development of fibrosis (histology) (human PCLS) | PPARγ target gene expression (human PCLS) | Plasma concentrations after i.p. and per os administration [3] | Col1a1 mRNA expression [4] | Fn1 mRNA expression [4] | Lung architecture, fibrotic lesions [4]
O=C1NC(=O)C(Cc2ccc(OCCC3CCN(C(=O)OCc4cc(Cl)cc(Cl)c4)CC3)cc2)S1 (stereo not drawn) [EL244, 3,5-dichlorobenzyl 4-(2-(4-((2,4-dioxothiazolidin-5-yl)methyl)phenoxy)ethyl)piperidine-1-carboxylate] | promoted adipogenesis dose responsively | induced the expression of several PPARγ target genes | suppressed | stimulating the expression of PPARγ target genes | reduced TGF-β-induced mitochondrial activation | downregulation | prevented and/or attenuated the development of fibrosis | upregulated the expression of PPARγ target genes |  |  |  | 
O=C1NC(=O)C(Cc2ccc(OCCN3CCN(C(=O)OCc4cc(Cl)cc(Cl)c4)CC3)cc2)S1 (stereo not drawn) [Compound 5, 3,5-dichlorobenzyl4-(2-(4-((2,4-dioxothiazolidin-5-yl)methyl)phenoxy)ethyl)piperazine-1-carboxylate] |  |  |  |  |  |  |  |  | comparable to the respective i.v. concentrations | decreasing | decreasing | improved the lung architecture
